Earlier results in US8906391B2, “Thermorod for active drug release and method for manufacturing the same” (Korea Sangsa Co., Ltd., priority 2008, dated 2014).

Settings: characteristics of the drugs, Table 1

SMILES | Hydrophobicity (Log P)
CC(=O)Nc1ccc(O)cc1 [Acetaminophen] | 0.917
CC(=O)O[C@H]1C(=O)[C@@]2(C)[C@H]([C@H](OC(=O)c3ccccc3)[C@]3(O)C[C@H](OC(=O)[C@H](O)[C@@H](NC(=O)c4ccccc4)c4ccccc4)C(C)=C1C3(C)C)[C@]1(OC(C)=O)CO[C@@H]1C[C@@H]2O [Paclitaxel] | 5.029
CC[C@H]1OC(=O)[C@H](C)[C@@H](O[C@H]2C[C@@](C)(OC)[C@@H](O)[C@H](C)O2)[C@H](C)[C@@H](O[C@@H]2O[C@H](C)C[C@H](N(C)C)[C@H]2O)[C@](C)(O)C[C@@H](C)C(=O)[C@H](C)[C@@H](O)[C@]1(C)O [Erythromycin] | 3.06
CC(=O)O[C@@]12CO[C@@H]1C[C@H](O)[C@@]1(C)C(=O)[C@H](O)C3=C(C)[C@@H](OC(=O)[C@H](O)[C@@H](NC(=O)OC(C)(C)C)c4ccccc4)C[C@@](O)([C@@H](OC(=O)c4ccccc4)[C@H]21)C3(C)C [Docetaxel] | 4.258
